Laboratory results as given in patent US10793561B2, “1,8-naphthyridinone compounds and uses thereof” (NUVATION BIO INC., priority 2017, dated 2020).

Columns and labels:
[1] = biological target: T1, adenosine A2A receptor (Homo sapiens (Human), UniProt P29274); test: Radioligand binding competition assay, adenosine A2A receptor; details: for A2A radioligand binding competition assay % residual binding @ 100 nM: 100 nM compound; for A2A radioligand binding competition assay % residual binding @ 300 nM: 300 nM compound; for A2A radioligand binding competition assay % residual binding @ 1000 nM: 1000 nM compound
Procedure: (§1) Binding of selected compounds to the adenosine A1, A2A, A2B, and A3 receptors was tested using a binding competition assay.
(§2) The general protocol for the radioligand binding competition assay was as follows. Competition binding was performed in duplicate in the wells of a 96 well plate (Master Block, Greiner, 786201) containing binding buffer (optimized for each receptor), membrane extracts (amount of protein/well optimized for each receptor), radiotracer (final concentration optimized for each receptor), and test compound. Nonspecific binding was determined by co-incubation with 200-fold excess of cold competitor. The samples were incubated in a final volume of 0.1 mL at 25° C. for 60 minutes and then filtered over filter plates. Filters were washed six times with 0.5 mL of ice-cold washing buffer (optimized for each receptor) and 50 μL of Microscint 20 (Packard) were added on each filter. The filter plates were sealed, incubated 15 min on an orbital shaker and scintillation counted with a TopCount for 30 sec/filter.
For the adenosine A2A receptor radioligand binding assay, the following modifications were made to the general protocol. GF/C filters (Perkin Elmer, 6005174), presoaked in 0.01% Brij for 2 h at room temperature were used. Filters were washed six times with 0.5 mL of ice-cold washing buffer (50 mM Tris pH 7.4) and 50 μL of Microscint 20 (Packard) was added in each well. The plates were then incubated for 15 min on an orbital shaker and then counted with a TopCount™ for 1 min/well.
Another radioligand binding assay was used to evaluate the binding affinity for the adenosine A2A receptor assay was performed in duplicate in the wells of a 384 plate. Assay buffer contained DPBS 500 mM, MgCl2 0.1 mM, and 1% DMSO. Membrane-bead suspension was prepared by mixing 25.98 μL of human adenosine A2A membrane preparation (Perkin Elmer, RBHA2AM400UA) at 33.4 pg/mL, 28 μL of ADA at 20 pg/mL, and 932 μL of SPA beads at 3.33 mg/mL) and incubated the mixture for 20 min at room temperature. Mixed 20 μL of radiotracer (^3H-SCH 58261) at 15 nM to each well containing test articles at various concentrations and centrifuge the plate at 1000 rpm for 1 minute. Added 30 μL of the membrane-bead suspension to each well. Sealed the plates and incubated for 1 hr at room temperature with vigorous mixing on a plate mixer. Plates were read on Microbeta^2 (Perkin Elmer, 2450-0010).
(§3) CHO-K1-A3 cell membranes, 1.5 μg/well; a binding buffer comprising HEPES 25 mM pH 7.4, MgCl2 5 mM, CaCl2 1 mM, 0.5% BSA; a wash buffer comprising HEPES 25 mM pH 7.4, MgCl2 5 mM, CaCl2 1 mM; a Unifilter GF/C—treated for 2 h with 0.5% BS; and 0.4 nM of ^125I-AB-MECA as the tracer. The results of the binding assay are shown in Table B1-1 and are shown as percent residual binding at a given concentration. Percent of residual binding means binding of a compound in the presence of competitor normalized to the amount of binding in the absence of competitor. […] For example, compound 1 strongly bound to A2A (30% residual binding at a concentration of 100 nM), A1 (−3% residual binding at 300 nM) and A2B, (−9% residual binding at 300 nM) but weakly bound to A3 (96% residual binding at 300 nM).

[2] = biological target: adenosine A2B receptor (Homo sapiens (Human), UniProt P29275); test: Radioligand binding competition assay, adenosine A2B receptor (HEK-293-A2b cell membranes); details: 300 nM compound
Procedure: as §1, §2
Similarly, the following reagents were used for the adenosine A2B radioligand binding competition assay: HEK-293-A2b cell membranes, 20 μg/well, preincubated 30 min at RT with […] Adenosine Deaminase; a binding buffer comprising HEPES 10 mM pH7.4, EDTA 1 mM, 0.5% BSA; a wash buffer comprising HEPES 10 mM pH7.4, EDTA 1 mM; a Unifilter GF/C—treated for 2 h with 0.5% PEI; and 10 nM ^3H-DPCPX as the tracer.
as §3

[3] = biological target: adenosine A1 receptor (Homo sapiens (Human), UniProt P30542); test: Radioligand binding competition assay, adenosine A1 receptor (CHO-K1-A1 cell membranes); details: 300 nM compound
Procedure: as §1, §2
For the adenosine A1 radioligand binding competition assay, a similar procedure was used except that the following reagents were used: CHO-K1-A1 cell membranes; binding buffer comprising HEPES 25 mM pH 7.4, MgCl2 5 mM, CaCl2 1 mM, NaCl 100 mM, saponin 10 µg/mL; wash buffer comprising HEPES 25 mM pH 7.4, MgCl2 5 mM, CaCl2 1 mM, NaCl 100 mM; Unifilter GF/B—treated for 2 h with 0.5% PEI was the filter; and 1.6 nM of ^3H-DPCPX was the tracer.
as §3

[4] = biological target: adenosine A3 receptor (Homo sapiens (Human), UniProt P0DMS8); test: Radioligand binding competition assay, adenosine A3 receptor (CHO-K1-A3 cell membranes); details: 300 nM compound
Procedure: as §1, §2
For the adenosine A3 radioligand binding competition assay, the following reagents were used:
as §3

[5] = biological target: T1, adenosine A2A receptor; test: cAMP assay in HEK-293 cells expressing human recombinant adenosine A2A receptor; type: cell-based; details: for inhibition at 0.1 µM: HEK293, 100 nM compound, read-out: A2a cAMP % inh @ 100 nM
Procedure: The functional activity of compounds was tested using one of the two assays to detect the present of cAMP. Activation of G-protein coupled receptors (such as A2A) results in activation of adenylcyclase which converts ATP into cAMP which is used as a downstream signaling molecule. Therefore, molecules which act as GPCR (or specifically A2A receptor) antagonists cause a decrease in intracellular cAMP concentration.
Both assays used HEK-293 cells expressing human recombinant adenosine A2A receptor were grown prior to the test in media without antibiotic. Assay 1: The cells were detached by gentle flushing with PBS-EDTA (5 mM EDTA), recovered by centrifugation and suspended in assay buffer (KRH: 5 mM KCl, 1.25 mM MgSO4, 124 mM NaCl, 25 mM HEPES, 13.3 mM Glucose, 1.25 mM KH2PO4, 1.45 mM CaCl2, 0.5 g/L BSA, supplemented with Rolipram).
12 μL of cells were mixed with 6 μL of the test compound at increasing concentrations and then incubated for 10 min. Thereafter 6 μL of the reference agonist was added at a final concentration corresponding to the historical EC80. The plates were then incubated for 30 min at room temperature. After addition of the lysis buffer and 1 hour incubation, cAMP concentrations were estimated, according to the manufacturer specification, with the HTRF® kit.
Assay 2: 100 nL of test articles at 100× of final concentration were transferred to assay plate by Echo. Cells were washed twice with 5 mL of PBS […]. After aspirating the PBS and adding 1.5 mL versine, cells were incubated at 37° C. for 2-5 min. After centrifugation, 4 mL of medium was added and adjusted cell density to 5,000 cells/well with stimulation buffer. 10 μL of cells were aliquoted to the assay plate, centrifuged at 1000 rpm for 1 minute, and incubated for 60 minutes at room temperature. 5 μL 4× Eu-cAMP tracer solution and 5 μL 4× Ulight™-anti-cAMP solution were added to assay plate, followed by centrifugation and 60-minute incubation at room temperature. Plates were read on EnVision.

adenosine A3 receptor, sequence (P0DMS8 whole entry): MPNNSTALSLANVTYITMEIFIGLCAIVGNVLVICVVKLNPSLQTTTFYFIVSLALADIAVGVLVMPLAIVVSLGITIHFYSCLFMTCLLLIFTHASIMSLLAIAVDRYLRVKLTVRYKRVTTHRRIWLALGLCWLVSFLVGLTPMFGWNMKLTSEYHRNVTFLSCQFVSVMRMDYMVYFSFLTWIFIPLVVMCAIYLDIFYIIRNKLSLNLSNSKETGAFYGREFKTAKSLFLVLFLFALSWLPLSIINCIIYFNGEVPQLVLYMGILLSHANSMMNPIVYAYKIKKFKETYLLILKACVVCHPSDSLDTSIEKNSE
adenosine A2B receptor, sequence (P29275 whole entry): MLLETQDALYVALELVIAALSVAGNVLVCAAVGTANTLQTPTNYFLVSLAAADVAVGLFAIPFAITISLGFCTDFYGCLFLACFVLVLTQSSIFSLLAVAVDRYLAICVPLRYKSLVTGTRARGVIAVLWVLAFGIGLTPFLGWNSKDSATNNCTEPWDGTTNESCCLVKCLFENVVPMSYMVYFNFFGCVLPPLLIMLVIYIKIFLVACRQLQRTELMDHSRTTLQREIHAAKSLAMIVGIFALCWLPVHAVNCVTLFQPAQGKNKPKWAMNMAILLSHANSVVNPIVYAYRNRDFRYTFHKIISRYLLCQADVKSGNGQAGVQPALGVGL
T1 sequence (P29274 whole entry): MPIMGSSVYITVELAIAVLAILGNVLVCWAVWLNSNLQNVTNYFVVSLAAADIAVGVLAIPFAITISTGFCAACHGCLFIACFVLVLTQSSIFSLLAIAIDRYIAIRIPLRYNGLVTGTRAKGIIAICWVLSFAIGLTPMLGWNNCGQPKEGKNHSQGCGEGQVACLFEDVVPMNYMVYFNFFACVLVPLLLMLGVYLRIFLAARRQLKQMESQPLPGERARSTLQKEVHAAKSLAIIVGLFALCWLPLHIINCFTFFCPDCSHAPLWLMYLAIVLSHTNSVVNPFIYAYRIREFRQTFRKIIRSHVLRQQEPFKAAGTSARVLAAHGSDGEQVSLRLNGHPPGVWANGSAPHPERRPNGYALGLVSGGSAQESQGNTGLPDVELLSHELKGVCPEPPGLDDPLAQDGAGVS
adenosine A1 receptor, sequence (P30542 whole entry): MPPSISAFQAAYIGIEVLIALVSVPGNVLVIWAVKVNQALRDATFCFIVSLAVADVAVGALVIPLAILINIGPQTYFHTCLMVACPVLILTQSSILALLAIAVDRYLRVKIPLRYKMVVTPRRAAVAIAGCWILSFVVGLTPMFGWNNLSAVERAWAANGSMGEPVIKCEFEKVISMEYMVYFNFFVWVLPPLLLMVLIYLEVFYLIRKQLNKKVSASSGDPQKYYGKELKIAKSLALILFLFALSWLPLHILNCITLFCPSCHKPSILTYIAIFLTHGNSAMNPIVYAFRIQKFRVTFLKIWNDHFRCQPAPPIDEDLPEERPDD

| Compound | IC50 [1] [nM] | A2A radioligand binding competition assay % residual binding @ 100 nM [1] [%] | A2A radioligand binding competition assay % residual binding @ 300 nM [1] [%] | A2A radioligand binding competition assay % residual binding @ 1000 nM [1] [%] | A2A radioligand binding competition assay % residual binding @ 3000 nM ([1]; 3000 nM compound) | Radioligand binding competition assay % residual binding @ 300 nM (A2b) [2] [%] | Radioligand binding competition assay % residual binding @ 300 nM (A1) [3] [%] | Radioligand binding competition assay % residual binding @ 300 nM (A3) [4] [%] | IC50 ([5]; first cAMP table) [nM] | inhibition at 0.1 µM [5] [%] | inhibition at 3 µM ([1]; 3000 nM compound, read-out: A2a binding % inh @ 3000 nM) [%] | IC50 ([5]; second cAMP table) [nM] |
| --- | --- | --- | --- | --- | --- | --- | --- | --- | --- | --- | --- | --- |
| O=c1cc[nH]c2nc(-c3ccccc3)c(-c3ccc(O)c(Cl)c3)cc12 [1.2, 6-(3-chloro-4-hydroxy-phenyl)-7-phenyl-1H-1,8-naphthyridin-4-one] |  | 77 | 60 |  |  | 0 | 0 | 83 | 22 |  |  |  |
| O=c1ccc2cc(-c3ccc(O)c(Cl)c3)c(-c3ccccc3)nc2[nH]1 [1.1, 6-(3-chloro-4-hydroxy-phenyl)-7-phenyl-1H-1,8-naphthyridin-2-one] |  | 83 | 54 |  |  | 17 | 1.6 | 95 | 61 |  |  |  |
| O=c1cc[nH]c2nc(-n3cccn3)c(-c3ccc4ncccc4c3)cc12 [Compound No. 1.100, 7-(1H-pyrazol-1-yl)-6-(quinolin-6-yl)-1,8-naphthyridin-4(1H)-one] |  |  |  |  |  |  |  |  |  |  | 78 | 3220 |
| O=c1cc[nH]c2nc(-c3ccccc3)c(-c3ccc4ocnc4c3)cc12 [Compound No. 1.21, 6-(benzo[d]oxazol-5-yl)-7-phenyl-1,8-naphthyridin-4(1H)-one] |  |  |  |  | 54/ND/ND/ND % |  |  |  |  | 45 |  |  |

Results, then the compound that gave them:

| IC50 [1] [nM] | A2A radioligand binding competition assay % residual binding @ 100 nM [1] [%] | A2A radioligand binding competition assay % residual binding @ 300 nM [1] [%] | A2A radioligand binding competition assay % residual binding @ 1000 nM [1] [%] | A2A radioligand binding competition assay % residual binding @ 3000 nM ([1]; 3000 nM compound) | Radioligand binding competition assay % residual binding @ 300 nM (A2b) [2] [%] | Radioligand binding competition assay % residual binding @ 300 nM (A1) [3] [%] | Radioligand binding competition assay % residual binding @ 300 nM (A3) [4] [%] | IC50 ([5]; first cAMP table) [nM] | inhibition at 0.1 µM [5] [%] | inhibition at 3 µM ([1]; 3000 nM compound, read-out: A2a binding % inh @ 3000 nM) [%] | IC50 ([5]; second cAMP table) [nM] | Compound |
| --- | --- | --- | --- | --- | --- | --- | --- | --- | --- | --- | --- | --- |
| 181 | 74 | 38 | 12 | 22% | 2 | 11 | 104 | 23 |  |  |  | O=c1cc[nH]c2nc(-c3ccccc3)c(-c3ccc4ncccc4c3)cc12 [1.5, 7-phenyl-6-(quinolin-6-yl)-1,8-naphthyridin-4(1H)-one] |
|  | 52 | 33 | 21 | 18% | 0 | 7 | 84 |  | 81 |  |  | O=c1cc[nH]c2nc(-c3ccccc3)c(-c3ccc4[nH]cnc4c3)cc12 [Compound No. 1.7, 6-(1H-benzo[d]imidazol-5-yl)-7-phenyl-1,8-naphthyridin-4(1H)-one] |
|  |  |  |  | 51/ND/ND/ND % |  |  |  |  | 49 |  |  | O=c1cc[nH]c2nc(-c3ccccc3)c(-c3cnc4ncccc4c3)cc12 [Compound No. 1.11, 2-phenyl-[3,3′-bi(1,8-naphthyridin)]-5(8H)-one] |
